Assay type in all cases: cell-based
One assay addresses human S1P5 receptor (Homo sapiens (Human), UniProt Q9H228). The assay is described as follows: In vitro functional activity (agonism) on human S1P5 receptors, CHO-human-S1P5-Aequorin assay. The conditions noted are these: aequorin luminescence, CHO cells, 3 independent experiments. The source says:
In Vitro Functional Activity (Agonism) on Human S1P5 Receptors
(§1) The CHO-human-S1P5-Aeqorin assay was bought from Euroscreen, Brussels (Euroscreen, Technical dossier, Human Lysophospholid S1P5 (Edg8) receptor, DNA clone and CHO AequoScreen™ recombinant cell-line, catalog no: ES-593-A, September 2006). Human-S1P5-Aequorin cells express mitochondrial targeted apo-Aequorin. Cells have to be loaded with coelanterazine, in order to reconstitute active Aequorin. After binding of agonists to the human S1P5 receptor the intracellular calcium concentration increases and binding of calcium to the apo-Aequorin/coelenterazine complex leads to an oxidation reaction of coelenterazine, which results in the production of apo-Aequorin, coelenteramide, CO2 and light ([…]max 469 nm). This luminescent response is dependent on the agonist concentration. Luminescence is measured using the MicroBeta Jet (Perkin Elmer). Agonistic effects of compounds are expressed as pEC50. Compounds were tested at a 10 points half log concentration range, and 3 independent experiments were performed in single point's measurements.

For the next assay, the target named is human S1P3 receptor (Homo sapiens (Human), UniProt Q99500). The assay can be described thus: In vitro functional activity (agonism) on human S1P3 receptors, CHO-human-S1P3-Aequorin assay. The conditions noted are these: aequorin luminescence, CHO K1 cells, 3 independent experiments, read-out: S1P3 pEC50 (converted).
human S1P3 receptor, sequence (Q99500 whole entry): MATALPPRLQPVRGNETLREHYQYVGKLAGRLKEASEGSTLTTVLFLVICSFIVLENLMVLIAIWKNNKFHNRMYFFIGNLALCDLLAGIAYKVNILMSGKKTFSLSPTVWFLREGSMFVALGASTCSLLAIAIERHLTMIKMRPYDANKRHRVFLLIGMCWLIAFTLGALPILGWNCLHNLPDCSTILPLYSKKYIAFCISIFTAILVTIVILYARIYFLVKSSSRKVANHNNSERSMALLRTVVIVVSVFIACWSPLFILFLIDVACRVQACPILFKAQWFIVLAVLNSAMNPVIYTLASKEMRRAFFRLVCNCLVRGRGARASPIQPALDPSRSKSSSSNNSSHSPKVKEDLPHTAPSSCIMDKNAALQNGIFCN
Source text: In Vitro Functional Activity (Agonism) on Human S1P3 Receptors
The CHO-human-S1P3-Aeqorin assay (CHO/Gα16/AEQ/h-S1P3) was established at Solvay Pharmaceuticals. The plasmid DNA coding for the S1P3 receptor (accession number in GenBank NM_005226 was purchased from UMR cDNA resource Centre (Rolla, Mo.). The pcDNA3.1/hS1P3 construct carrying the mitochondrially targeted apo-Aeqorin and Gal6 protein was transfected in CHO K1 cell-line.
as §1, with “Human-S1P3-Aequorin” for “The CHO-human-S1P5-Aeqorin assay was bought from Euroscreen, Brussels (Euroscreen, Technical dossier, Human Lysophospholid S1P5 (Edg8) receptor, DNA clone and CHO AequoScreen™ recombinant cell-line, catalog no: ES-593-A, September 2006). Human-S1P5-Aequorin”, “S1P3” for “S1P5”

In assay [1] the target is T1, human S1P1 (Homo sapiens (Human), UniProt P21453). The assay is described as follows: In vitro functional activity (agonism) on human S1P1 receptors (method B), CHO-K1-human S1P1-cAMP assay. How it is done: In Vitro Functional Activity (Agonism) on Human S1P1 Receptors (Method B)
T1 sequence (P21453 whole entry): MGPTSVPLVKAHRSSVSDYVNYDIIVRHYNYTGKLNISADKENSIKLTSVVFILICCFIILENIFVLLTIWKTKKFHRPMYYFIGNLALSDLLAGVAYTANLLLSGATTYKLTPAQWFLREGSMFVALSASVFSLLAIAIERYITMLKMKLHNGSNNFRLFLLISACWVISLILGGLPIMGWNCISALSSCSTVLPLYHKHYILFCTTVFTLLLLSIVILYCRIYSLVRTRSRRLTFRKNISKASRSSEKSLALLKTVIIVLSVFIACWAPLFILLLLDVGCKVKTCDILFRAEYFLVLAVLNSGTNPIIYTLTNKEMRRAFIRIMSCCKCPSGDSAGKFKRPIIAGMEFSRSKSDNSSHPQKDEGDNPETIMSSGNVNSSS
Recombinant CHO-K1 cells expressing human S1P1, grown to mid-log Phase in culture media without antibiotics, detached, centrifuged and re-suspended. For agonist testing cells are mixed with compound and Forskolin and incubated at room temperature. Cells are lyses and cAMP concentration are estimated, according to the manufacturer specification, With the HTRF kit from CIS-BIO International (cat no 62AM2PEB).
Compounds were tested at a 10 points half log concentration range duplicated in 1 experiment.
In general terms: cAMP levels reflect the balance of adenylyl cyclase and phosphodiesterase activity.

In assay [2] the target is T1, human S1P1. The assay can be described thus: In vitro functional activity (agonism) on human S1P1 receptors (method A), CHO-K1-human-S1P1-Aequorin assay. The conditions noted are these: agonism, determined using method A (aequorin luminescence, CHO-K1 cells), 2 independent experiments; read-out: S1P1^A pEC50 (converted).
Source text: In Vitro Functional Activity (Agonism) on Human S1P1 Receptors (Method A)
as §1, with “Human-S1P1-Aequorin” for “The CHO-human-S1P5-Aeqorin assay was bought from Euroscreen, Brussels (Euroscreen, Technical dossier, Human Lysophospholid S1P5 (Edg8) receptor, DNA clone and CHO AequoScreen™ recombinant cell-line, catalog no: ES-593-A, September 2006). Human-S1P5-Aequorin”, “S1P1” for “S1P5”, “2” for “3”

Setting [3] is: agonism, determined using method B (cAMP HTRF with Forskolin, CHO-K1 cells), read-out: S1P1^B pEC50 (converted).

Structures can show the parent of a compound that is named as a salt.

The record followed here is patent US10179791B2, “Spiro-cyclic amine derivatives as S1P modulators” (AbbVie B.V., priority 2010, dated 2019).

human S1P5 receptor, sequence (Q9H228 whole entry): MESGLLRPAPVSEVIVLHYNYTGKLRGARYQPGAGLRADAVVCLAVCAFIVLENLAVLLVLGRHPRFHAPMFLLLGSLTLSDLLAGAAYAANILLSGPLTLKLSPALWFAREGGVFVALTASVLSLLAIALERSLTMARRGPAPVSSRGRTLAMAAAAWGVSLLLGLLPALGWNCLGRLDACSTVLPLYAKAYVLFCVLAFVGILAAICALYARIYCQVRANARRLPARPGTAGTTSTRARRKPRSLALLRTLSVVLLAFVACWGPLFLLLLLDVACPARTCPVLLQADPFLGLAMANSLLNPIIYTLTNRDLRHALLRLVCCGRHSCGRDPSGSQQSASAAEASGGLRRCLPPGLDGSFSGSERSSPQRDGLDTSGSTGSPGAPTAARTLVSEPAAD

On to `O=C(O)CCN1CCC2(CC1)COc1cc(OCc3c(F)cccc3Cl)ccc12` [Compound 38, 3-{6-[(2-Chloro-6-fluorphenyl)methoxy]-2H-spiro[1-benzofuran-3,4′-piperidine]-1′-yl}propanoic acid hydrochloride], for which, on human S1P5 receptor, the “S1P5 pEC50” value worked out at 6.7. Moreover, the EC50 was > 10 µM at human S1P3 receptor and > 3.16 µM at human S1P1 [1].
On to `CCc1ccc(Cl)c(COc2ccc3c(c2)OCC32CCN(CCC(=O)O)CC2)c1` [Compound 51, 3-{6-[(2-Chloro-5-ethylphenyl)methoxy]-2H-spiro[1-benzofuran-3,4′-piperidine]-1′-yl}propanoic acid hydrochloride], for which the “S1P5 pEC50” value on human S1P5 receptor came to 6.6. The EC50 was > 10 µM at human S1P3 receptor and > 3.16 µM at human S1P1 [1] (setting [3]).
The corresponding values for `Cc1cc(Cl)c(COc2ccc3c(c2)OCC32CCN(CCC(=O)O)CC2)c(Cl)c1` [Compound 59, 3-{6-[(2,6-Dichloro-4-methylphenyl)methoxy]-2H-spiro[1-benzofuran-3,4′-piperidine]-1′-yl)propanoic acid hydrochloride] are 7.8, > 10 µM and > 3.16 µM.
On to `CCc1ccc(Cl)c(COc2ccc3c(c2)OCC32CCN(CCC(=O)O)CC2)c1Cl` [Compound 68, 3-{6-[(2,6-Dichloro-3-ethylphenyl)methoxy]-2H-spiro[1-benzofuran-3,4′-piperidine]-1′-yl}propanoic acid hydrochloride], for which the “S1P5 pEC50” value at human S1P5 receptor is given as 7.5. Further, the results for the EC50 at human S1P3 receptor and on human S1P1 [1] (setting [3]) were > 10 µM and > 3.16 µM, respectively.
Turning to `CC(C)c1cccc(Cl)c1COc1ccc2c(c1)OCC21CCN(CCC(=O)O)CC1` [Compound 74, 3-(6-{[2-Chloro-6-(propan-2-yl)phenyl]methoxy}-2H-spiro[1-benzofuran-3,4′-piperidine]-1′-yl)propanoic acid hydrochloride], the EC50 on human S1P1 [1] was > 3.16 µM.
As to `O=C(O)CCN1CCC2(CC1)COc1cc(OC3CCc4cc(Cl)cc(Cl)c43)ccc12` (stereo not shown) [Compound 79, 3-{6-[(5,7-Dichloro-2,3-dihydro-1H-inden-1-yl)oxy]-2H-spiro[1-benzofuran-3,4′-piperidine]-1′-yl}propanoic acid], on human S1P5 receptor, the “S1P5 pEC50” value amounted to 7.2. For the same compound, the results for the EC50 at human S1P3 receptor and at human S1P1 [1] (setting [3]) were > 10 µM and 2 µM, respectively.
On to `CC(CN1CCC2(CC1)COc1cc(OCc3c(Cl)cccc3Cl)ccc12)C(=O)O` (stereo not shown) [Compound 100, 3-{6-[(2,6-Dichlorophenyl)methoxy]-2H-spiro[1-benzofuran-3,4′-piperidine]-1′-yl}-2-methylpropanoic acid hydrochloride], for which the “S1P5 pEC50” value on human S1P5 receptor was found to be 7. The EC50 was > 10 µM on human S1P3 receptor and > 3.16 µM on human S1P1 [1] (setting [3]).
For the compound `O=C(O)CCCN1CCC2(CC1)COc1cc(OCc3c(Cl)cccc3Cl)ccc12` [Compound 128, 4-{6-[(2,6-Dichlorophenyl)methoxy]-2H-spiro[1-benzofuran-3,4′-piperidine]-1′-yl}butanoic acid hydrochloride], the “S1P5 pEC50” value on human S1P5 receptor was determined as 7.6. Also, the EC50 at human S1P3 receptor was > 10 µM; at human S1P1 [1] (setting [3]) it was > 3.16 µM.
In the same order, the values of `Cc1c(OCc2c(Cl)cccc2Cl)ccc2c1OCC21CCN(CCC(=O)O)CC1` [Compound 129, 3-{6-[(2,6-Dichlorophenyl)methoxy]-7-methyl-2H-spiro[1-benzofuran-3,4′-piperidine]-1′-yl}propanoic acid hydrochloride] are 7.5, > 10 µM and > 3.16 µM.
As to `O=C(O)CCN1CCC2(CC1)COc1cc(/C=C/c3c(Cl)cccc3Cl)ccc12` [Compound 160, 3-{6-[(E)-2-(2,6-Dichlorophenyl)ethenyl]-2H-spiro[1-benzofuran-3,4′-piperidine]-1′-yl}propanoic acid hydrochloride], the “S1P5 pEC50” value on human S1P5 receptor is 7.7. The values for the EC50 on human S1P3 receptor and at human S1P1 [1] (setting [3]) were > 10 µM and > 3.16 µM, respectively.
Take `O=C(O)CCN1CCC2(CC1)COc1cc(/C=C/c3ccccc3F)ccc12` [Compound 171, 3-{6-[(E)-2-(2-Fluorophenyl)ethenyl]-2H-spiro[1-benzofuran-3,4′-piperidine]-1′-yl}propanoic acid hydrochloride]: at human S1P5 receptor, the “S1P5 pEC50” value was determined as 6.5. The EC50 is > 10 µM on human S1P3 receptor and > 3.16 µM on human S1P1 [1] (setting [3]).
Consider `O=C(O)CCN1CCC2(CC1)COc1cc(C3CC3c3c(Cl)cccc3Cl)ccc12` (stereo not shown) [Compound 178, 3-{6-[2-(2,6-Dichlorophenyl)cyclopropyl]-2H-spiro[1-benzo-furan-3,4′-piperidine]-1′-yl}propanoic acid hydrochloride], for which, at human S1P5 receptor, the “S1P5 pEC50” value is 7.1. The results for the EC50 at human S1P3 receptor and at human S1P1 [1] (setting [3]) were 3.16 µM and > 3.16 µM, respectively.
Take `CCCCCCCOc1ccc2c(c1F)OCC21CCN(CCC(=O)O)CC1` [Compound 276, 3-[7-fluoro-6-(heptyloxy)-2H-spiro[1-benzofuran-3,4′-piperidine]-1′-yl]propanoic acid]: the EC50 on human S1P1 [2] is > 31.6 µM; on human S1P3 receptor, > 10 µM. Moreover, the “S1P5 pEC50” value at human S1P5 receptor worked out at 7.1.
As for `CCCCCCCCOc1ccc2c(c1F)OCC21CCN(CCC(=O)O)CC1` [Compound 277, 3-[7-fluoro-6-(octyloxy)-2H-spiro[1-benzofuran-3,4′-piperidine]-1′-yl]propanoic acid], the EC50 was 0.0794 µM at human S1P1 [2] and > 10 µM at human S1P3 receptor. The “S1P5 pEC50” value at human S1P5 receptor is 7.8.
The corresponding values for `O=C(O)CCN1CCC2(CC1)COc1cc(OCc3c(Cl)cccc3Cl)c(F)cc12` [Compound 289, 3-{6-[(2,6-Dichlorophenyl)methoxy]-5-fluoro-2H-spiro[1-benzofuran-3,4′-piperidine]-1′-yl}propanoic acid] are > 31.6 µM, > 10 µM and 7.5.
On to `O=C(O)CCN1CCC2(CC1)COc1cc(S(=O)(=O)Cc3c(Cl)cccc3Cl)ccc12` [Compound 299, 3-(6-{[(2,6-Dichlorophenyl)methane]sulfonyl}-2H-spiro[1-benzofuran-3,4′-piperidine]-1′-yl}propanoic acid hydrochloride], for which the results for the EC50 at human S1P1 [2] and on human S1P3 receptor were > 31.6 µM and > 10 µM, respectively. Moreover, the “S1P5 pEC50” value at human S1P5 receptor came out at 6.
For the compound `O=C(O)CCN1CCC2(CC1)COc1cc(C#Cc3ccccc3)ccc12` [Compound 303, 3-[6-(2-Phenylethynyl)-2H-spiro[1-benzofuran-3,4′-piperidine]-1′-yl]propanoic acid hydrochloride], the values for the EC50 on human S1P1 [2] and at human S1P3 receptor were > 31.6 µM and > 10 µM, respectively. Moreover, the “S1P5 pEC50” value on human S1P5 receptor is listed as 7.6.
Take `O=C(O)CCN1CCCC2(COc3cc(OCc4c(Cl)cccc4C4CC4)ccc32)C1` (stereo not shown) [Compound 317, 3-{6-[(2-Chloro-6-cyclopropylphenyl)methoxy]-2H-spiro[1-benzofuran-3,3′-piperidine]-1′-yl}propanoic acid hydrochloride]: the EC50 on human S1P1 [2] is > 31.6 µM; at human S1P3 receptor it was > 10 µM. At human S1P5 receptor, the “S1P5 pEC50” value was found to be 7.
In the case of `O=C(O)CCN1CCCC2(COc3cc(OCc4c(Cl)cccc4Cl)ccc32)C1` (stereo not shown) [Compound 321, 3-{6-[(2,6-Dichlorophenyl)methoxy]-2H-spiro[1-benzofuran-3,3′-piperidine]-1′-yl}propanoic acid hydrochloride], the EC50 on human S1P1 [2] was > 31.6 µM; at human S1P3 receptor, > 10 µM. The “S1P5 pEC50” value at human S1P5 receptor worked out at 7.1.
